Patent US11628159B2, “Cell-protective compounds and their use” (ETH ZURICH, priority 2017, dated 2023)
Entries after “also recorded” stand apart in the source; their conditions may differ. Where two headings read alike, the source gives them in different places.

T1: GRK2 (Homo sapiens, UniProt P25098)
T1 construct: fused on or other part: hexahistidine tag
T1 sequence (P25098 1-669 limits assumed): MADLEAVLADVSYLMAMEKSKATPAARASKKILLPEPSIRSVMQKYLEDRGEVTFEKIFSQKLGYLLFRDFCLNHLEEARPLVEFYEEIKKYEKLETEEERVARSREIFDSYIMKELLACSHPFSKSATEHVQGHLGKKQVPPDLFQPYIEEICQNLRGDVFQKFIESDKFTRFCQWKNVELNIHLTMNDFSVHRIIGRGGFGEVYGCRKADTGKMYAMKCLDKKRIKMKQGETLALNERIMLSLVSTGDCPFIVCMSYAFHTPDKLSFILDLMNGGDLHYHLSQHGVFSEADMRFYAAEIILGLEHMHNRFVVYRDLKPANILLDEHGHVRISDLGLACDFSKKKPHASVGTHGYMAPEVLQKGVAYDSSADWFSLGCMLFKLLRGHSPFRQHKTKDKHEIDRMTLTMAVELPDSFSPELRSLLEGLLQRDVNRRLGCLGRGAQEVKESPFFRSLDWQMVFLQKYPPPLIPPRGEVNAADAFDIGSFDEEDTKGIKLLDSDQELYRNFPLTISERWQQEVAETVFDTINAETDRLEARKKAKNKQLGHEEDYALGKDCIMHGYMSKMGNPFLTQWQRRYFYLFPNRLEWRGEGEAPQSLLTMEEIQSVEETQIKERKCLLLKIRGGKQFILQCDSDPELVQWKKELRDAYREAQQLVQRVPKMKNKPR


Columns and labels:
[1] = tested on: GRK2-mediated phosphorylation of SRSF1/Srsf1; test: Immunoblot of SRSF1/Srsf1 phosphorylation in isolated neonatal cardiomyocytes from Tg-SRSF1 mice; assay type: cell-based, mouse; conditions: 10 microM, 60 h, relative to vehicle
Protocol: A, The GRK2-mediated phosphorylation of SRSF1/Srsf1 was determined by immunoblot in lysates from isolated neonatal cardiomyocytes from Tg-SRSF1 mice after incubation for 60 h with 10 microM of paroxetine, 1-(1,3-benzodioxol-5-yl)-4-(cyclopropane-carbonyl)-3-hydroxy-2-phenyl-2H-pyrrol-5-one (“Compound-1”) or 4-(1,3-benzodioxol-5-yl)pyrimidine (“Compound-4”) relative to vehicle-treated control (“C”) cardiomyocytes. B, Immunoblot detection of GRK2-mediated phosphorylation of SRSF1 (pSRSF1) was performed with lysates from HEK (human embryonic kidney) cells incubated for 60 h with 10 microM of 4-(1,3-benzodioxol-5-yl)pyrimidine (“Compound-4”), 1-(1,3-benzodioxol-5-ylmethyl)-5-(4-chlorophenyl)-2-methyl-pyrrole-3-carboxamide (“Compound-24”) or (4R)-N3-(1,3-benzodioxol-5-ylmethyl)-N4-[[3-(trifluoromethyl)phenyl]-methyl]pyrrolidine-3,4-dicarboxamide (“Compound-5”) relative to vehicle-treated controls (“C”).
Briefly, the hearts were dissected out from 2-3 day-old mice, atria and aorta were removed, and the hearts were transferred into sterile buffer A (137 mM NaCl, 5.36 mM KCl, 0.81 mM MgSO4, 5.55 mM dextrose, 0.44 mM KH2PO4, 0.34 mM Na2HPO4, 20 mM HEPES, 100 U/ml penicillin, 100 microg/ml streptomycin, pH 7.4). […]

GRK2 = molecular target: T1, GRK2; test: In vitro phosphorylation assay: GRK2-mediated phosphorylation of SRSF1 with purified proteins; assay type: biochemical; conditions: for IC50: purified proteins
Protocol: The GRK2-mediated phosphorylation of SRSF1 was determined with purified proteins in the presence of increasing concentrations of paroxetine or different small molecule compounds. SRSF1 phosphorylation is presented as % of control, which is the SRSF1 phosphorylation in the absence of inhibitor.
Recombinant human GRK2 protein and GRK2-S670A protein was expressed in and purified from Spodoptera frugiperda (Sf9) cells by the baculoviral expression system. […] Sf9 cells were infected with recombinant baculoviruses at an MOI of 2-3, 48 h after infection cells were harvested by centrifugation, lysed with lysis buffer (300 mM NaCl, 50 mM HEPES, pH 7.5 supplemented with 1% NP40, 1 mM PMSF and protease inhibitor cocktail) and applied to Ni-NTA chromatography. After overnight incubation at 4° C., unbound proteins were removed by washing with lysis buffer (20× column volumes) followed by 1× column volume of 30 mM imidazole-containing lysis buffer. Bound GRK2 was eluted by 300 mM imidazole in lysis buffer, desalted by PD10 column chromatograpy, supplemented with 20% glycerol and stored at −80° C. for further use.
Protein-expressing bacteria were collected by centrifugation, frozen in liquid nitrogen and thawed on ice in lysis buffer (8 M urea, 300 mM NaCl, 50 mM HEPES, 10 mM imidazole, pH 7.5), which was supplemented with 2-mercaptoethanol (0.7 ml/L) freshly before use (10 ml of lysis buffer for a bacterial pellet from 200 ml of culture medium). The bacterial lysate was incubated for 1 h at room temperature, sonicated and centrifuged for 15 min at 4000×g at 4° C. The supernatant was applied to the Ni-NTA column matrix prewashed with 20 ml of lysis buffer. […] Finally, proteins were eluted with elution buffer (300 mM NaCl, 50 mM HEPES, 500 mM imidazole, pH 7.5, supplemented freshly with 0.7 ml/L 2-mercaptoethanol). Buffer of eluted proteins was exchanged to 150 mM NaCl, 50 mM HEPES (pH 7.5) by PD10 column chromatography.
Recombinant proteins were used for an in vitro phosphorylation assay with GRK2 and GRK2-S670A. […] After an incubation for 30 min at 30° C., the reaction was stopped by the addition of 5×SDS-Laemmli buffer. Proteins were separated by SDS-PAGE and subjected to autoradiography. […] After an incubation for 30-60 min at 30° C., the phosphorylation was stopped by the addition of 5 volumes of ice-cold reaction buffer. The reaction mixtures were immediately applied to glass fiber filters (GF/C, WHATMAN™, GE Healthcare Life Sciences, Glattbrugg, Switzerland). After three washing steps with 5 ml of reaction buffer, filter-bound radioactivity was determined in a β-counter.

[2] = read-out: IC50 value, inhibition of GRK2-mediated SRSF1 phosphorylation

Row | Molecule | SRSF1/Srsf1 phosphorylation in isolated Tg-SRSF1 cardiomyocytes [1] | IC50 value lower than that of paroxetine (GRK2; GRK2-mediated SRSF1 phosphorylation) | IC50 (GRK2; n=4, read-out: IC50 value, inhibition of GRK2-mediated phosphorylation of SRSF1) [nM] | IC50 (GRK2; [2]) [nM] | Inhibition of the in vitro phosphorylation of SRSF1 by GRK2 (GRK2; result in words)
1 | O=C(C1=C(O)C(c2ccccc2)N(c2ccc3c(c2)OCO3)C1=O)C1CC1 (stereo not shown) [Compound-1, 1-(1,3-benzodioxol-5-yl)-4-(cyclopropane-carbonyl)-3-hydroxy-2-phenyl-2H-pyrrol-5-one] | decreased | more than 5 fold | 450 | 450 | –
2 | c1cc(-c2ccc3c(c2)OCO3)ncn1 [Compound-4, 4-(1,3-benzodioxol-5-yl)pyrimidine] | decreased | – | – | 1870 | –
3 | RKIP: raf kinase inhibitor protein, a dual-specific GRK2 and Raf kinase inhibitor (protein, UniProt P30086 2-187, looked up) Phosphatidylethanolamine-bindi …: PVDLSKWSGPLSLQEVDEQPQHPLHVTYAGAAVDELGKVLTPTQVKNRPTSISWDGLDSGKLYTLVLTDPDAPSRKDPKYREWHHFLVVNMKGNDISSGTVLSDYVGSGPPKGTGLHRYVWLVYEQDRPLKCDEPILSNRSGDHRGKFKVASFRKKYELRAPVAGTCYQAEWDDYVPKLYEQLSGK | – | – | – | – | does not inhibit; also recorded: did not inhibit
